Assay results published in ChEMBL document CHEMBL5506015, “Discovery of a Meisoindigo-Derived PROTAC as the ATM Degrader: Revolutionizing Colorectal Cancer Therapy via Synthetic Lethality with ATR Inhibitors” (J Med Chem, 2024).
Calls of active or inactive are those of the source. The calls are words filed in the database; no cut-off is given here.

How the values were obtained:
HCT-116 [1] = assay: Cytotoxicity against human HCT-116 cells assessed as reduction in cell viability incubated for 48 hrs by MTT assay; conditions: HCT-116, 48 h
SW480 [2] = assay: Downregulation of ATM level in human SW480 cells at 10 uM by immunoblot analysis; format: functional, cell-based; conditions: time <= 12.0 hrs, TDE = time-dependent effect
SW480 [3] = assay: Downregulation of ATM level in human SW480 cells measured after 12 hrs by immunoblot analysis; format: functional, cell-based; conditions: dose 1.25-10 µM
SW-620 [4] = assay: Upregulation of cleaved caspase 3 level in human SW620 cells at 1.25 to 10 uM measured after 12 hrs by immunoblot analysis; format: functional, cell-based; conditions: dose 1.25-10 µM
SW-620 [5] = assay: Induction of DNA damage in human SW620 cells assessed as gamma-H2AX accumulation at 10 uM by immunoblot analysis; format: functional, cell-based; conditions: time <= 24.0 hrs, TDE = time-dependent effect
[6] = Toxicity in Balb/c nude mouse assessed as effect on body weight loss at 15 mg/kg/day administered for 14 days in presence of AZD6738 […]; format: organism-based; conditions: in vivo, 336 h, time 14 day
SW-620 [7] = assay: Antitumor activity against human SW620 cells xenografted in Balb/c nude mouse model assessed as inflammatory cell infiltration at 15 mg/kg/day measured after 14 days by H and E staining based analysis; format: functional, organism-based; conditions: time 14.0 day
SW480 [8] = assay: Potentiation of AZD6738 induced DNA damage in human SW480 cells assessed as gamma-H2AX accumulation in nuclei at 5 uM incubated for 12 hrs by immunohistochemical staining based analysis; format: functional, cell-based
SW-620 [9] = assay: Cytotoxicity against human SW620 cells assessed as reduction in cell viability incubated for 48 hrs by MTT assay; conditions: SW-620, 48 h
[10] = Downregulation of ATM level in human SW620 cells transfected with NC shRNA by immunoblot analysis; format: functional, SW-620
SW-620 [11] = assay: Antitumor activity against human SW620 cells xenografted in Balb/c nude mouse model assessed as decrease in cleaved caspase 3 level at 15 mg/kg/day measured after 14 days by Western blot analysis; format: functional, organism-based; conditions: time 14.0 day
NCI-H358 = assay: Cytotoxicity against human NCI-H358 cells assessed as reduction in cell viability incubated for 48 hrs by MTT assay; conditions: NCI-H358, 48 h
SW-620 [12] = assay: Antitumor activity against human SW620 cells xenografted in Balb/c nude mouse model assessed as decrease in BCL2 protein level at 15 mg/kg/day measured after 14 days by Western blot analysis; format: functional, organism-based; conditions: time 14.0 day
[13] = Toxicity in Balb/c nude mouse assessed as effect on body weight loss at 15 mg/kg/day administered for 14 days […]; format: organism-based; conditions: in vivo, 336 h, time 14 day
HCT-116 [14] = assay: Cytotoxicity against human HCT-116 cells transfected with NC shRNA assessed as reduction in cell viability measured after 48 hrs by MTT assay; conditions: HCT-116, 48 h
SW-620 [15] = assay: Potentiation of AZD6738 induced DNA damage in human SW620 cells assessed as gamma-H2AX accumulation in nuclei at 5 uM incubated for 12 hrs by immunohistochemical staining based analysis; format: functional, cell-based
SW-620 [16] = assay: Antitumor activity against human SW620 cells xenografted in Balb/c nude mouse model assessed as reduction in tumor load at 15 mg/kg/day administered for 14 days by vernier caliper based analysis; format: functional, organism-based; conditions: time 14.0 day
K562 [17] = assay: Potentiation of AZD6738 induced DNA damage in human K562 cells assessed as gamma-H2AX accumulation in nuclei at 5 uM incubated for 12 hrs by immunohistochemical staining based analysis; format: functional, cell-based
SW-620 [18] = assay: Induction of DNA damage in human SW620 cells assessed as gamma-H2AX accumulation incubated for 12 hrs by immunoblot analysis; format: functional, cell-based; conditions: dose 2.5-10 µM
COLO 205 = assay: Cytotoxicity against human COLO 205 cells assessed as reduction in cell viability incubated for 48 hrs by MTT assay; conditions: COLO 205, 48 h
SW-620 [19] = assay: Cytotoxicity against human SW620 cells transfected with NC shRNA assessed as reduction in cell viability measured after 48 hrs by MTT assay; conditions: SW-620, 48 h
SW480 [20] = assay: Cytotoxicity against human SW480 cells assessed as reduction in cell viability incubated for 48 hrs by MTT assay; conditions: SW480, 48 h
[21] = Cytotoxicity against human HIEC-6 cells assessed as reduction in cell viability incubated for 48 hrs by MTT assay; format: toxicity, cell-based
K562 [22] = assay: Induction of DNA damage in human K562 cells assessed as gamma-H2AX accumulation at 20 uM by immunoblot analysis; format: functional, cell-based; conditions: time <= 12.0 hrs, TDE = time-dependent effect
SW-620 [23] = assay: Antitumor activity against human SW620 cells xenografted in Balb/c nude mouse model assessed as decrease in ATM protein level at 15 mg/kg/day measured after 14 days by Western blot analysis; format: functional, organism-based; conditions: time 14.0 day
SW480 [24] = assay: Downregulation of BCL2 level in human SW480 cells at 1.25 to 10 uM measured after 12 hrs by immunoblot analysis; format: functional, cell-based; conditions: dose 1.25-10 µM
K562 [25] = assay: Cytotoxicity against human K562 cells assessed as reduction in cell viability incubated for 48 hrs by MTT assay; conditions: K562, 48 h
SW-620 [26] = assay: Downregulation of PROX1 level in human SW620 cells measured after 12 hrs by immunoblot analysis; format: functional, cell-based; conditions: dose 1.25-10 µM
SW-620 [27] = assay: Induction of cell cycle arrest in human SW620 cells assessed as accumulation of cells at G0/G1 phase incubated for 12 hrs by flow cytometry based analysis; format: functional; conditions: dose 5-10 µM

For `Cc1ncsc1-c1ccc(CNC(=O)[C@@H]2C[C@@H](O)CN2C(=O)[C@@H](NC(=O)CCCCCn2cc(CCCN3C(=O)/C(=C4/C(=O)Nc5ccccc54)c4ccccc43)nn2)C(C)(C)C)cc1`, the IC50 (HCT-116 [1]) was 5.82 µM, the Activity (SW480 [2]) was “Tde” and the Activity (SW480 [3]) was “Dose-Dependent Effect”. The Activity (SW-620 [4]) was “Active”, the Activity (SW-620 [5]) was “Tde” and the Activity [6] was “Non-Toxic”. For the same molecule, the Activity (SW-620 [7]) was “Active”, the Activity (SW480 [8]) was “Active” and the IC50 (SW-620 [9]) was 3.7 µM. For the same molecule, the Activity [10] was 100%, the Activity (SW-620 [11]) was “Active” and the IC50 (NCI-H358) was > 20 µM. For the same molecule, the Activity (SW-620 [12]) was “Active”, the Activity [13] was “Non-Toxic” and the IC50 (HCT-116 [14]) was 5.82 µM. For the same molecule, the Activity (SW-620 [15]) was “Active”, the Activity (SW-620 [16]) was “Active” and the Activity (K562 [17]) was “Active”. The Activity (SW-620 [18]) was “Dose-Dependent Effect”, the IC50 (COLO 205) was 5.11 µM and the IC50 (SW-620 [19]) was 3.7 µM. The IC50 (SW480 [20]) was 2.59 µM, the IC50 at 48 h ([21]; HIEC-6 cells) was 23.9 µM and the Activity ([21]; hiec-6, 48 h, dose 0.01-50 µM, time 48 hrs) was “Dose-Dependent Effect”. The Activity (K562 [22]) was “Tde”, the Activity (SW-620 [23]) was “Active” and the Activity (SW480 [24]) was “Active”. For the same molecule, the IC50 (K562 [25]) was 4.06 µM, the Activity (SW-620 [26]) was “Dose-Dependent Effect” and the Activity (SW-620 [27]) was “Dose-Dependent Effect”.
